Source: paper PMC7310518 (Nature chemical biology, 2017)
Read-outs that look alike come from different tables or passages of the source.

Legend:
[1] = target: T1, AaBioW (pimeloyl-CoA synthetase BioW) (Aquifex aeolicus, UniProt O67575); test: co-crystal structure with CoA; format: binding
[2] = target: T1, AaBioW (pimeloyl-CoA synthetase BioW); test: ITC; format: binding
[3] = target: T1, AaBioW (pimeloyl-CoA synthetase BioW); test: ITC; format: binding; remark: listed apart in the source
[4] = target: T1, AaBioW (pimeloyl-CoA synthetase BioW); test: TLC proofreading assay; format: biochemical
[5] = target: T1, AaBioW (pimeloyl-CoA synthetase BioW); test: TLC adenylation/proofreading assay; format: biochemical

T1 sequence (O67575 whole entry): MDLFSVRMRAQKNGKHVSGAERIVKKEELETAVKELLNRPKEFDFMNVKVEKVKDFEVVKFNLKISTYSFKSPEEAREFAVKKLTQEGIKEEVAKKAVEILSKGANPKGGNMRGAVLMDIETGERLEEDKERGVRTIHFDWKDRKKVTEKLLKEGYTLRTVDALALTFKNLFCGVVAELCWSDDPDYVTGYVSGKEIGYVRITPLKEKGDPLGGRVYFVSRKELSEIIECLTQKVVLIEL

Q: How did the “co-crystal structure with CoA (2.25 Å)” value [1] turn out when `Nc1ncnc2c1ncn2[C@@H]1O[C@H](COP(=O)(O)O)[C@@H](O)[C@H]1O` [AMP] was run?
A: AaBioW with CoA–AMP (5TVA)

Q: For `Nc1ncnc2c1ncn2[C@@H]1O[C@H](COP(=O)(O)OP(=O)(O)OP(=O)(O)O)[C@@H](O)[C@H]1O` [ATP], which Kd [2] is on record?
A: 13 ± 3 µM

Q: Which Kd [3] does the source give for `CC(C)(COP(=O)(O)OP(=O)(O)OC[C@H]1O[C@@H](n2cnc3c(N)ncnc32)[C@H](O)[C@@H]1OP(=O)(O)O)[C@@H](O)C(=O)NCCC(=O)NCCS` [CoA] here?
A: 14 ± 2.5 µM

Q: How did the “TLC proofreading assay (AMP accumulation)” value [4] turn out when `O=C(O)CCCC(=O)O` [compound 3, glutarate] was run?
A: reactions carried out using glutarate in the absence of CoA resulted only in the accumulation of AMP

Q: How did the TLC adenylation/proofreading assay [5] turn out when `O=C(O)CCCCC(=O)O` [compound 4, adipate] was run?
A: adenylated intermediates can be observed for the cognate C7, as well as for the noncognate C6 and C8 substrates

Q: With `O=C(O)CCCCCCC(=O)O` [compound 5, suberate] as the molecule, how does the TLC adenylation/proofreading assay [5] read?
A: adenylated intermediates can be observed for the cognate C7, as well as for the noncognate C6 and C8 substrates
